Results published in the NIST ThermoML archive (doi:10.1021/je700260f).

Conditions: Liquid, Vibrating tube method

FC(C(F)(F)F)C(F)(F)F [1,1,1,2,3,3,3-heptafluoropropane]
Conditions	mass density [kg/m3]
333.15 K, 33156 kPa	1451.3
333.15 K, 33196 kPa	1451.6
333.15 K, 33224 kPa	1451.7
333.15 K, 33268 kPa	1451.7
333.15 K, 33317 kPa	1451.9
333.15 K, 33346 kPa	1452
333.15 K, 33391 kPa	1452.2
333.15 K, 33421 kPa	1452.4
333.15 K, 33465 kPa	1452.5
333.15 K, 33498 kPa	1452.4
333.15 K, 33532 kPa	1452.7
333.15 K, 33566 kPa	1452.8
333.15 K, 33615 kPa	1453
333.15 K, 33639 kPa	1453.3
333.15 K, 33683 kPa	1453.3
333.15 K, 33713 kPa	1453.3
333.15 K, 33753 kPa	1453.7
333.15 K, 34447 kPa	1456.1
333.15 K, 34493 kPa	1456.2
333.15 K, 34519 kPa	1456.4
333.15 K, 34541 kPa	1456.4
333.15 K, 34553 kPa	1456.4
333.15 K, 34564 kPa	1456.6
333.15 K, 34570 kPa	1456.7
333.16 K, 8979 kPa	1316.3
333.16 K, 9012 kPa	1316.5
333.16 K, 9767 kPa	1323.1
333.16 K, 9793 kPa	1323.2
333.16 K, 9821 kPa	1323.4
333.16 K, 9857 kPa	1323.7
333.16 K, 9885 kPa	1324
333.16 K, 9911 kPa	1324.3
333.16 K, 9936 kPa	1324.5
333.16 K, 9961 kPa	1324.7
333.16 K, 9986 kPa	1324.9
333.16 K, 10016 kPa	1325.2
333.16 K, 10042 kPa	1325.3
333.16 K, 10070 kPa	1325.4
333.16 K, 10094 kPa	1325.8
333.16 K, 10119 kPa	1326.1
333.16 K, 10148 kPa	1326.3
333.16 K, 10178 kPa	1326.6
333.16 K, 10203 kPa	1326.6
333.16 K, 10236 kPa	1326.9
333.16 K, 10265 kPa	1327.2
333.16 K, 10287 kPa	1327.4
333.16 K, 10312 kPa	1327.6
333.16 K, 10338 kPa	1327.9
333.16 K, 10367 kPa	1328.1
333.16 K, 10397 kPa	1328.3
333.16 K, 10430 kPa	1328.5
333.16 K, 10457 kPa	1328.7
333.16 K, 10483 kPa	1329
333.16 K, 10515 kPa	1329.4
333.16 K, 10537 kPa	1329.3
333.16 K, 10570 kPa	1329.8
333.16 K, 10596 kPa	1329.9
333.16 K, 10624 kPa	1330.1
333.16 K, 10654 kPa	1330.5
333.16 K, 10839 kPa	1331.8
333.16 K, 10866 kPa	1332.1
333.16 K, 10896 kPa	1332.3
333.16 K, 10918 kPa	1332.5
333.16 K, 10947 kPa	1332.7
333.16 K, 10979 kPa	1332.9
333.16 K, 11112 kPa	1334
333.16 K, 11141 kPa	1334.3
333.16 K, 11160 kPa	1334.5
333.16 K, 11186 kPa	1334.6
333.16 K, 11212 kPa	1334.9
333.16 K, 11245 kPa	1335.1
333.16 K, 11275 kPa	1335.4
333.16 K, 11298 kPa	1335.5
333.16 K, 11320 kPa	1335.7
333.16 K, 11353 kPa	1336
333.16 K, 11388 kPa	1336.3
333.16 K, 11415 kPa	1336.6
333.16 K, 11450 kPa	1336.7
333.16 K, 11481 kPa	1337
333.16 K, 11534 kPa	1337.4
333.16 K, 11792 kPa	1339.3
333.16 K, 11824 kPa	1339.6
333.16 K, 11847 kPa	1339.8
333.16 K, 11870 kPa	1339.9
333.16 K, 11897 kPa	1340.1
333.16 K, 11937 kPa	1340.4
333.16 K, 11965 kPa	1340.6
333.16 K, 11989 kPa	1340.8
333.16 K, 12024 kPa	1341.1
333.16 K, 12062 kPa	1341.3
333.16 K, 12090 kPa	1341.4
333.16 K, 12120 kPa	1341.8
333.16 K, 12147 kPa	1342
333.16 K, 12167 kPa	1342.2
333.16 K, 12202 kPa	1342.3
333.16 K, 12226 kPa	1342.6
333.16 K, 12261 kPa	1342.8
333.16 K, 12289 kPa	1343
333.16 K, 12321 kPa	1343.4
333.16 K, 12345 kPa	1343.5
333.16 K, 12385 kPa	1343.8
333.16 K, 12416 kPa	1344
